Test results from paper PMC9663589, “Anti-tumor effects of P-LPK-CPT, a peptide-camptothecin conjugate, in colorectal cancer” (Communications Biology, 2022).
“Also recorded” adds a separate entry of the source. Read-outs that look alike come from different tables or passages of the source. No end group written: not given here.

Legend:
HCT116 cells [1] = test: EdU incorporation assay (DNA synthesis); assay type: cell-based, human
Experimental: (§1) 96-well plates were seeded at 3000 cells per well and exposed to different treatments. 50 μM EdU labeling medium (RiboBio) was added and incubated for 2 h at 37 °C. The cells were then fixed with 4% […] for 10 min. After being washed with PBS, cells were stained with anti-EdU working solution for 30 min and stained with Hoechst33342 for 10 min. Cells were observed using fluorescent microscopy. The percentage of EdU-positive cells was calculated from five random fields in three wells.

LoVo cells = test: EdU incorporation assay (DNA synthesis); assay type: cell-based, human
Experimental: as §1

NCM460 cells = test: EdU incorporation assay (DNA synthesis); assay type: cell-based, human
Experimental: as §1

HCT116 tumors [2] = test: HCT116 xenograft therapeutic evaluation; conditions: CPT 5 mg/kg iv twice a week
Experimental: Female BALB/c nude mice (4–6 weeks with weights of 18–22 g) were obtained from Shanghai Super-B&K Laboratory Animal Corp. Ltd. (Shanghai, China) and kept in specific pathogen free, temperature-controlled isolation. All animal studies were conducted in accordance with the principles and procedures outlined in the Guide for the Care and Use of Laboratory Animals and were approved by Ethics committee. To generate the HCT116 and U87 tumor model, about 1 × 10^6 tumor cells were subcutaneously injected into the right front flank of 4 weeks old athymic nude mice.
The HCT116 tumor-bearing mice were randomly divided into 4 groups (n = 7 for each group). […] The tumors were measured by a vernier caliper twice a week. The weights of the mice were recorded. Then, the mice were sacrificed at the 28th day. The tumors were dissected and weighted. The tumor volumes were calculated to evaluate the therapeutic efficacy.

[3] = system: patient-derived CRC xenograft; test: CRC patient-derived xenograft (PDX) therapeutic evaluation; assay type: in vivo, human xenograft in mice; conditions: HE staining
[4] = system: Cleaved caspase 3 in colon tissues; test: Cleaved caspase 3 immunofluorescence in colon tissues (GI toxicity); assay type: in vivo, mouse; conditions: PDX mice, CPT eq. 3 mg/kg iv twice a week, colon tissue
intestine and liver = test: Organ histology (Supplementary Fig. 6); assay type: in vivo, mouse
HCT116 cells [5] = test: Endocytosis inhibition assay (FITC-P-LPK internalization); assay type: cell-based, human; conditions: 10 µM, 30 min pre-treatment, then FITC-P-LPK 2 h; NC vs CPZ p = 0.0001
Experimental: Fig. 6 P-LPK bound to SLC1A5 and entered CRC cells through endocytosis. a, b Western blotting analysis of SLC1A5 in NCM460, HCT116, LoVo, SW480, HT29 and Colo320HSR cells. After knocking down SLC1A5 in HCT116 and HT29, the binding intensity of FITC-P-LPK to cells was observed by confocal microscopy. Bar, 10 μm. c, d Effects of different endocytosis inhibitors on the internalization of FITC-P-LPK. HCT116 cells were pre-treated with 10 µM chlorpromazine, 50 μM methyl-β-cyclodextrin, 20 µM Amiloride hydrochloride for 30 min at 37 °C. Subsequently, the cells were incubated with FITC-P-LPK for 2 h. Then the fluorescence intensity was observed by confocal microscopy and detected using a multi-well plate reader (n = 5, means ± SD, NC vs CPZ, p = 0.0001; NC vs MβCD, p = 0.9069; NC vs EIPA, p = 0.9812) (****p < 0.0001). Bar, 10 μm. e The competition experiment with SLC1A5 substrates glutamine. FITC-P-LPK was incubated with increasing concentrations (0–32 mM) of glutamine in HCT116 cells at 37 °C for 2 h. The fluorescence intensity was measured in a multi-well plate reader (n = 5, means ± SD).
Chlorpromazine (CPZ), amiloride (AMI), and methyl-β-cyclodextrin (MCD) were purchased from MedChem Express. […] Then the fluorescence intensity was detected using a multi-well plate reader (BioTek synergy4) and observed by confocal laser scanning microscopy.

HCT116 cells [6] = test: FITC-peptide binding, confocal fluorescence intensity; assay type: cell-based, human; conditions: FITC labeled, immunofluorescence
Experimental: NCM460, Colo320HSR, HCT116, LoVo, HT29 and SW480 cells were respectively incubated with FITC-labeled P-LPK (Random peptide P-CON) peptides for 2 h at 37 °C and washed with PBS for three times. The cells were fixed with 4% paraformaldehyde for 30 min at room temperature, and then 4,6-diamidino-2-phenylindole (DAPI) was used for nucleic acid stain. A laser scanning confocal microscope was used to visualize the cells. The fluorescence intensity was analyzed using the Image-Pro Plus 6.0 software. For cell localization experiment, 20 μg/ml rhodamine-labeled peptides were incubated with NCM460 and HCT116 for 2 h, and then washed with PBS for three times. After that, the cell membrane was stained with a blue cell membrane probe (Thermo Fisher Scientific, Cat. No. W11263). The binding of Rhodamine-P-LPK to cells and their localization in cells was observed under a confocal microscope.

recombinant SLC1A5 [7] = target: T1, recombinant SLC1A5 (Homo sapiens, UniProt Q15758); test: Surface plasmon resonance, Biacore T200; assay type: binding; conditions: Biacore T200, CM5 chip, peptide 25–400 μM, 1×PBS with 5% DMSO, 0.05% Tween 20, pH 7.4; read-out: KD (SPR)
T1 sequence (Q15758 1-541): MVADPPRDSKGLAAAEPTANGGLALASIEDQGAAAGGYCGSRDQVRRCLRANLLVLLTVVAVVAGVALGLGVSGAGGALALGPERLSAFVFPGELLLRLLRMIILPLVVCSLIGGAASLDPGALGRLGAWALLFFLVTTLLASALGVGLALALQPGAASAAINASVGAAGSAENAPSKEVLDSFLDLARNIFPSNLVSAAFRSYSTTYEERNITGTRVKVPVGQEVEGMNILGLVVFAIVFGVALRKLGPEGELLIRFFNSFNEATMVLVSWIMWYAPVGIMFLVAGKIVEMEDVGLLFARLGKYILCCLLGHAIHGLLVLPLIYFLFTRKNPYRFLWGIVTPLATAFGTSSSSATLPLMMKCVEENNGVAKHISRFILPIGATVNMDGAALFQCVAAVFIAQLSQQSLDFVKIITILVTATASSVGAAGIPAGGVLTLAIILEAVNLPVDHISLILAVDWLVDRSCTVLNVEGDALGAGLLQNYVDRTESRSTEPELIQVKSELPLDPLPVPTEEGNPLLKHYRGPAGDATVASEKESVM
Experimental: A surface plasmon resonance-based method using the Biacore T200 platform was developed to detect the binding of peptide (25–400 μM) to recombinant SLC1A5. The sensor chip CM5, 1 × PBS (2 mM KH2PO4, 10 mM Na2HPO4, 137 mM NaCl, 2.7 mM KCl) with 5% DMSO, 0.05% Tween 20 buffer (pH 7.4), and the amine coupling kit (which includes EDC, NHS, and ethanolamine reagents) were all obtained from GE Healthcare. The sensor chip CM5 was activated using EDC and NHS reagents, according to the standard procedure for amine coupling. 20 μg/ml SLC1A5 (about 10 μg proteins in 0.5 ml 10 mM Sodium Acetate buffer) was then covalently immobilized to the chip surface CM5 under 10 mM Sodium Acetate (pH 4.5) buffer. The resulting differences in resonance units (RU) were about 4000 RU. After de-activation by ethanolamine and washing with 1×PBS with 5% DMSO, 0.05% Tween 20 buffer (pH 7.4), the prepared sensor chip was applied to Biacore T200 for the binding assay. 1×PBS with 5% DMSO, 0.05% Tween 20 buffer (pH 7.4) was used as running buffer. A one-minute injection of a solution of 10 mM Glycine-HCl, pH 3.0 was used to regenerate the chip surface.

in vivo [8] = test: in vivo; set-up: species or system human xenograft in BALB/c nude mice; conditions: female, BALB/c nude, mouse, iv, 3.7 MBq, total radioactivity, T/NT ratio
Experimental: (§2) To obtain ^68Ga, 0.1 M HCl was used to elute a ^68Ge-^68Ga generator. The radioactivity of eluate was monitored. The radioactive elution peak was collected for ^68Ga radiolabeling experiment. An aliquot of 150 μg of compound P-LPK or P-CON was put in a glass vial and dissolved with 0.2 M sodium acetate/acetic acid buffer, pH 3.8. Then ^68GaCl3 tracer was added, and the pH was adjusted to fall in a range of 3.5~4 with 0.1 M NaOH. The solution was stored at room temperature for 0.5 h. The radiochemical purities of ^68Ga-P-LPK and ^68Ga-P-CON were measured with thin-layer chromatography (TLC), using silica gel-impregnated glass fiber stripe (iTLC SG) and 0.25 M sodium citrate/citric acid buffer as mobile phase. ^68GaCl3 was used as a control.
(§3) Each U87 and HCT116 tumor-bearing mouse was injected in a tail vein with 3.7 MBq (100 μCi, 0.1 nmol in 100 μl) of ^68Ga-P-LPK or ^68Ga-P-CON under isoflurane anesthesia (n = 4 per group). For static PET, 5-min scans were acquired at 30 min, 60 min, and 120 min after injection. The maximum radioactivity concentrations within a tumor or an organ were obtained from mean pixel values within the multiple regions of interest (ROI) volume.

in vivo [9] = test: in vivo; set-up: species or system human xenograft in BALB/c nude mice; conditions: female, BALB/c nude, mouse, iv, 3.7 MBq, total radioactivity, T/NT ratio; remark: listed apart in the source
Experimental: as §2, §3
(§4) For the blocking experiment, unlabeled P-LPK was first injected into mice (n = 3 per group), and 3.7 MBq ^68Ga-P-LPK was then injected. Static PET images were acquired at 30 min, 60 min and 120 min post-injection.

HCT116 tumors [10] = test: in vivo; set-up: species or system human xenograft in BALB/c nude mice; conditions: for T/NT ratio, unblock: female, BALB/c nude, mouse, iv, 3.7 MBq
Experimental: as §2, §3, §4

recombinant SLC1A5 [11] = target: T2, recombinant SLC1A5 (UniProt Q15758 1-541); test: SPR; Biacore T200; SLC1A5 covalently immobilised by amine coupling on a CM5 chip (about 4000 RU); peptide 25-400 uM as analyte; running buffer 1x PBS with 5% DMSO, 0.05% Tween 20, pH 7.4; conditions: both partners purified
T2 construct: glutamine transporter solute carrier 1 family member 5 (SLC1A5, ASCT2), recombinant protein; additional methods are in the Supplementary Material; also called solute carrier 1 family member 5; ASCT2
T2 sequence: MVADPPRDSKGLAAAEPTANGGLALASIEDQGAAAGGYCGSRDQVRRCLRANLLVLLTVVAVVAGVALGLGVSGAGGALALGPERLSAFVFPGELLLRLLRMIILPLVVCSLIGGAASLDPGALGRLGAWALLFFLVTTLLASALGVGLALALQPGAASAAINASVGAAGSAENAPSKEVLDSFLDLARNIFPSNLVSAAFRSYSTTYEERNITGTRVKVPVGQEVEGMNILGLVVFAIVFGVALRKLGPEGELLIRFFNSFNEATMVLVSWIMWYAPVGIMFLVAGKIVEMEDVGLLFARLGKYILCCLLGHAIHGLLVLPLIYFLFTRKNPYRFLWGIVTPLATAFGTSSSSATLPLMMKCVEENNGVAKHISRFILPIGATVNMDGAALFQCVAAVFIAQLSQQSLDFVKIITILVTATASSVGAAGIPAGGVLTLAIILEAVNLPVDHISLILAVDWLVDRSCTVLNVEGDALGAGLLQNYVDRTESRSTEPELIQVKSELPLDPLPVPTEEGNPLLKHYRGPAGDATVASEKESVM

[12] = relative to DMSO = 1, replicate 1
[13] = relative to DMSO = 1, replicate 2
[14] = relative to DMSO = 1, replicate 3

Molecule: CC[C@@]1(O)C(=O)OCc2c1cc1n(c2=O)Cc2cc3ccccc3nc2-1 [CPT, camptothecin]
- Proportion of cells in the DNA synthesis state (HCT116 cells [1]; [12]): 1.278
- Proportion of cells in the DNA synthesis state (HCT116 cells [1]; [13]): 0.9932
- Proportion of cells in the DNA synthesis state (HCT116 cells [1]; [14]): 0.9243
- Proportion of cells in the DNA synthesis state (LoVo cells; [12]): 0.9805
- Proportion of cells in the DNA synthesis state (LoVo cells; [13]): 0.8341
- Proportion of cells in the DNA synthesis state (LoVo cells; [14]): 1.054
- Proportion of cells in the DNA synthesis state (NCM460 cells; [12]): 1.185
- Proportion of cells in the DNA synthesis state (NCM460 cells; [13]): 1.136
- Proportion of cells in the DNA synthesis state (NCM460 cells; [14]): 0.9381
- Mortality during treatment (HCT116 tumors [2]): More than half of the mice; also recorded: more than half of mice treated with CPT died of side effects
- Tumor histology (cancer cells in tumor tissue) [3]: almost maintained its original morphological features
- Quantification of Cleaved caspase 3 ([4]; CPT vs P-LPK-CPT p = 0.0051, replicate 1): 24
- Quantification of Cleaved caspase 3 ([4]; replicate 2): 11
- Quantification of Cleaved caspase 3 ([4]; replicate 3): 14
- Quantification of Cleaved caspase 3 ([4]; replicate 4): 10
- Quantification of Cleaved caspase 3 ([4]; replicate 5): 13
- Damage to intestine and liver (intestine and liver): significantly increased
- Antitumor activity / cytotoxicity (CRC cells; 10 nM (CPT equivalent)): no obvious toxicity to CRC cells
- Antitumor activity / cytotoxicity (CRC cells; 100 nM): obvious cytotoxicity effects

Molecule: CN(C)CCCN1c2ccccc2Sc2ccc(Cl)cc21 [CPZ, chlorpromazine]
- Effect on cellular internalization of FITC-P-LPK (HCT116 cells [5]): exhibited the highest inhibitory effect; also recorded: remarkably decreased the cellular internalization of FITC-P-LPK

Molecule: APATVSSDMSLA [FITC-P-MUT]
- Fluorescence intensity of mutant peptide bound to cells (HCT116 cells [6]): significantly reduced

Molecule: DLPSRTSALASG [P-CON]
- Kd (recombinant SLC1A5 [7]): 126 µM

Molecule: LPKTVSSDMSLN [68Ga-P-LPK, metal not drawn]
- tissue to tissue ratio at 0.5 h (in vivo [8]): 1.68
- tissue to tissue ratio at 1 h (in vivo [8]): 1.47
- tissue to tissue ratio at 2 h (in vivo [8]): 1.28
- tissue to tissue ratio at 0.5 h (in vivo [9]): 2.85
- tissue to tissue ratio at 1 h (in vivo [9]): 2.38
- tissue to tissue ratio at 2 h (in vivo [9]): 1.87
- tissue to tissue ratio at 0.5 h (in vivo [9]; block): 0.41
- tissue to tissue ratio at 1 h (in vivo [9]; block): 1.17
- tissue to tissue ratio at 2 h (in vivo [9]; block): 0.79
- tissue to tissue ratio at 0.5 h (in vivo [9]; unblock): 0.82
- tissue to tissue ratio at 1 h (in vivo [9]; unblock): 2.91
- tissue to tissue ratio at 2 h (in vivo [9]; unblock): 2.31
- T/NT ratios after blocking (HCT116 tumors [10]): significantly reduced
- T/NT ratios vs 68Ga-P-CON (HCT116 tumors [10]): significantly increased
- Tumor binding after pre-injection with unlabeled P-LPK (HCT116 tumors [10]): dramatically attenuated
- T/NT ratio, unblock (HCT116 tumors [10]; 0.5 h): 0.51
- T/NT ratio, unblock (HCT116 tumors [10]; 1 h): 2.47

B1: P-LPK peptide (peptide)
peptide: LPKTVSSDMSLN
notes: twelve-residue peptide selected from an M13 phage-display peptide library on CRC cells; Unlabelled peptide, analyte in the SPR experiment; source: synthetic peptide
- Kd (recombinant SLC1A5 [11]): ~1.19 µM
